pEC50: −log10 of the molar value. In brackets after ≈: the same amount, converted by molar mass. Where two headings read alike, the source gives them in different places. One block for each compound: values may come before it. Numbered stars: 1 amine (or outer) side, 2 acyl side, 3 side chain; on linkers, the order of the positions; unused ones are H or OH. Bridge positions count the residues as written; N and C are the ends. Side chains are listed from the residue outwards. Peptide text beside a SMILES is read from it. * marks the point of attachment. C20 diacid = O=C(O)CCCCCCCCCCCCCCCCCCC(=O)*; γGlu = O=C(O)[C@H](CCC(=O)[*:2])N[*:1]
Columns and labels:
[1] = ThT assay: fibril formation propensity and peptide recovery; assay type: physicochemical; details: for recovery: residual dissolved peptide after 45 h of shaking, centrifugation and 0.22 μm filtration, HPLC, relative to amount before stress
Method: The stability properties of the individual amylin analogs were assessed with respect to their propensity toward fibril formation, expressed as the time until fibril formation (measured as Lag time) and loss of dissolved peptide (assessed as Peptide Recovery). […] Samples were prepared as described previously (using the same methodology and materials) for a novel amylin-based analog candidate compound.[7]
Briefly, each compound was dissolved in 10 mM of glycylglycine buffer (pH 4.0) or HEPES buffer (pH 7.5) to a concentration of 250 μM, followed by ThT stock solution to a final concentration of 1 μM. Each solution was aliquoted into a microtiter plate (200 μL/well) sealed with a transparent adhesive sheet. Mechanical stress was applied at 37 °C incubation (960 rpm, 1 mm amplitude) with 20 min fluorescence reading intervals for 45 h (filters: excitation 444 nm; emission 485 nm). Each peptide was tested in experiments consisting of four replicas (e.g., four wells on the same plate), and the lag time of each replica was determined by visual inspection of the fluorescence-versus-time plot. For wells where no fibril formation could be detected, the lag time was set longer than the test period (>45 h). The lag time of the peptide was set to the lowest lag time of the four replicates (conservative estimate). Some of the peptides were tested in more than one experiment, and the lag time results given in Tables 6 and 9 represent the average of these experiments. The ThT time course data given in Supporting Information represent the average and SEM of each experiment.[40] After analysis, wells representing individual replicas were pooled, and the residual soluble peptide was isolated using centrifugation (20,000 g/30 min at room temperature) followed by […] filtration. The amount of residual dissolved peptide was determined using an HPLC with a flow rate of 2 mL/min at 30 °C and 215/276 nm detection. A gradient combining eluent A (7.7% w/w acetonitrile, 200 mM Na2SO4, 20 mM NaH2PO4, 20 mM Na2HPO4, pH 7.2) and eluent B (65.5% w/w acetonitrile) was applied. The amount of residual dissolved peptide was reported on a relative scale (Peptide Recovery) to the amount of dissolved peptide prior to mechanical stress.

[2] = HMWP content by size-exclusion chromatography; assay type: physicochemical; details: covalent dimers and polymers prior to fibril formation testing, SEC, % of total absorbance area at 215 nm
Method: The stability properties of the individual amylin analogs were assessed with respect to their propensity toward amyloid fibril formation. The relative amount of covalent dimers and polymers (HMWP) present prior to fibril formation testing was measured as a control for the potential inhibitory effect of HMWP on fibril formation propensity as reported elsewhere.[39]
Elution was performed under isocratic conditions with the following mobile phase prepared in Milli-Q water (Millipore A/S): 0.5 M NaCl, 10 mM sodium dihydrogen monohydrate, 5 mM ortho-phosphoric acid, 50% (v/v) 2-propanol. The amount of HMWP was determined as the absorbance area of the corresponding peaks given in percentage of the total absorbance area. The molar extinction coefficients of the molecules eluting in the HMWP fraction and the main peak was assumed to be equal.

hAMY3R = biological target: T1, hAMY3R (Homo sapiens, UniProt O60896+P30988); assay: cAMP-responsive element luciferase reporter assay, human AMY3R; assay type: cell-based; parameters: expressed in transfected cells
T1 sequence (P30988 25-474): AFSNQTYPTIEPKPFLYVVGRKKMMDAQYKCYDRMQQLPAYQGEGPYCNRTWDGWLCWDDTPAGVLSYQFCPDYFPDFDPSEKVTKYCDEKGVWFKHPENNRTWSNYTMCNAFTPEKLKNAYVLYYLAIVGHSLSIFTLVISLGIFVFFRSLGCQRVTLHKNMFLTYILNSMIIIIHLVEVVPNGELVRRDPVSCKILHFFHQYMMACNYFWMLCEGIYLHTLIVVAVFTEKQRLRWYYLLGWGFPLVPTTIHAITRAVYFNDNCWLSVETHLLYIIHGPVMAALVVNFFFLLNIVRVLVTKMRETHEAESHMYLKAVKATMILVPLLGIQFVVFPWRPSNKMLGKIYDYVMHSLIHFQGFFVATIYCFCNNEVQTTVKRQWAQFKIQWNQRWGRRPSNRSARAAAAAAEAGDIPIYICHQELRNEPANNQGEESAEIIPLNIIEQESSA
T1 sequence (O60896 24-148 partner): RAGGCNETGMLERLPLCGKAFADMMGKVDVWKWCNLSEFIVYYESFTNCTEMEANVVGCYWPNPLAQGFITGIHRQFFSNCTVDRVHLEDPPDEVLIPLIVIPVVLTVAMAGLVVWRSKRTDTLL

hCTR = biological target: T2, hCTR (Homo sapiens, UniProt P30988); assay: cAMP-responsive element luciferase reporter assay, human CTR; assay type: cell-based; details: luciferase (human receptor assay)
T2 sequence (P30988 25-474): T1 sequence (P30988 25-474)

[3] = Solubility versus pH profile
rats = assay: Acute food intake in rats; assay type: in vivo, rat; details: single sc injection of 30 nmol/kg, relative to vehicle, mean ± SEM, n = 5–7 per group

- ThT, pH 7.5 lag-time ([1]; 250 μM peptide, 10 mM HEPES pH 7.5, 1 μM ThT, 37 °C, 960 rpm, 45 h, lowest of four replicas, average of experiments): 4 h
- recovery ([1]; pH 7.5): 21%
- HMWP ([2]; analogs 1–9 (pH 7.5 series)): 5%
- EC50 (hAMY3R; luciferase (human receptor assay), Tables S12 and S14, read-out: hAMY3R pEC50 (converted)): 269 pM
- pEC50 (hAMY3R; luciferase (human receptor assay), BHK cells stably expressing hCTR+RAMP3 and CRE-luciferase, 3 h, 37 °C, 10% FBS, read-out: hAMY3R EC50): 9.57
- ratio hCTR/hAMY3R (hAMY3R; ratio of luciferase EC50 values): 2.5
- EC50 (hCTR; Tables S12 and S14, read-out: hCTR pEC50 (converted)): 676 pM
- pEC50 (hCTR; BHK cells stably expressing hCTR and CRE-luciferase, 3 h, 37 °C, 10% FBS, read-out: hCTR EC50): 9.17
- solubility kinetic ([3]; bis-tris-propane buffer, pH 6, aqueous buffer): 173 µM (≈ 788 µg/mL)
- solubility kinetic ([3]; bis-tris-propane buffer, pH 6.5, aqueous buffer): ≥ 200 µM
- solubility kinetic ([3]; bis-tris-propane buffer, pH 7, aqueous buffer): ≥ 200 µM
- solubility kinetic ([3]; bis-tris-propane buffer, pH 7.5, aqueous buffer): ≥ 200 µM
- solubility kinetic ([3]; bis-tris-propane buffer, pH 8, aqueous buffer): ≥ 200 µM
- solubility kinetic ([3]; lactate buffer, pH 4, aqueous buffer): ≥ 200 µM
- solubility kinetic ([3]; lactate buffer, pH 5, aqueous buffer): 38 µM (≈ 173 µg/mL)
SMILES: CC[C@H](C)[C@H](NC(=O)[C@@H]1CCCN1C(=O)CNC(=O)[C@H](Cc1ccccc1)NC(=O)[C@@H]1CCCN1C(=O)[C@H](CC(N)=O)NC(=O)[C@H](CO)NC(=O)[C@H](CO)NC(=O)[C@H](Cc1c[nH]cn1)NC(=O)[C@H](CCCNC(=N)N)NC(=O)[C@H](CC(C)C)NC(=O)[C@H](Cc1ccccc1)NC(=O)[C@H](CC(=O)O)NC(=O)[C@H](C)NC(=O)[C@H](CC(C)C)NC(=O)[C@H](CCCNC(=N)N)NC(=O)[C@H](CCC(N)=O)NC(=O)[C@@H](NC(=O)[C@H](C)NC(=O)[C@@H]1CSSC[C@H](NC(=O)[C@@H](N)CCCCNC(=O)CC[C@H](NC(=O)CC[C@H](NC(=O)CCCCCCCCCCCCCCCCCCC(=O)O)C(=O)O)C(=O)O)C(=O)N[C@@H](CC(N)=O)C(=O)N[C@@H]([C@@H](C)O)C(=O)N[C@@H](C)C(=O)N[C@@H]([C@@H](C)O)C(=O)N1)[C@@H](C)O)C(=O)N[C@@H](CC(C)C)C(=O)N[C@@H](CO)C(=O)N[C@@H](CO)C(=O)N[C@H](C(=O)N[C@@H](CC(N)=O)C(=O)N[C@H](C(=O)NCC(=O)N[C@@H](CO)C(=O)N[C@@H](CC(=O)O)C(=O)N[C@H](C(=O)N[C@@H](Cc1ccc(O)cc1)C(N)=O)[C@@H](C)O)C(C)C)[C@@H](C)O [Peptide 4] (H-K([γGlu-γGlu-C20 diacid])CNTATCATQRLADFLRHSSNPFGPILSSTNVGSDTY-NH2; disulfide 2-7)

- ThT, pH 4.0 lag-time ([1]; 250 μM peptide, 10 mM glycylglycine pH 4.0, 1 μM ThT, 37 °C, 960 rpm, 45 h, lowest of four replicas, average of experiments): 27 h
- recovery ([1]; pH 4.0): 67%
- HMWP ([2]; analogs 10–21 (pH 4.0 series)): 0.7%
- solubility kinetic ([3]; pH 4, aqueous buffer): ≥ 200 µM
- solubility kinetic ([3]; pH 5, aqueous buffer): ≥ 200 µM
- solubility kinetic ([3]; pH 6, aqueous buffer): ≥ 200 µM
- solubility kinetic ([3]; pH 6.5, aqueous buffer): ≥ 200 µM
- solubility kinetic ([3]; pH 7, aqueous buffer): ≥ 200 µM
- solubility kinetic ([3]; pH 7.5, aqueous buffer): ≥ 200 µM
- solubility kinetic ([3]; pH 8, aqueous buffer): ≥ 200 µM
SMILES: CC[C@H](C)[C@H](NC(=O)[C@H](C)NC(=O)CNC(=O)[C@H](Cc1ccccc1)NC(=O)[C@H](CC(N)=O)NC(=O)[C@@H]1CCCN1C(=O)[C@H](CO)NC(=O)[C@H](CO)NC(=O)[C@H](Cc1c[nH]cn1)NC(=O)[C@H](CCCNC(=N)N)NC(=O)[C@H](CC(C)C)NC(=O)[C@H](Cc1ccccc1)NC(=O)[C@H](CC(N)=O)NC(=O)[C@H](C)NC(=O)[C@H](CC(C)C)NC(=O)[C@H](CCCNC(=N)N)NC(=O)[C@H](CCC(N)=O)NC(=O)[C@@H](NC(=O)[C@H](C)NC(=O)[C@@H]1CSSC[C@H](NC(=O)[C@H](CCCCN)NC(=O)COCCOCCNC(=O)CC[C@H](NC(=O)CCCCCCCCCCCCCCCCCCC(=O)O)C(=O)O)C(=O)N[C@@H](CC(N)=O)C(=O)N[C@@H]([C@@H](C)O)C(=O)N[C@@H](C)C(=O)N[C@@H]([C@@H](C)O)C(=O)N1)[C@@H](C)O)C(=O)N1CCC[C@H]1C(=O)N[C@@H](CO)C(=O)N[C@@H](CO)C(=O)N[C@H](C(=O)N[C@@H](CC(N)=O)C(=O)N[C@H](C(=O)NCC(=O)N[C@@H](CO)C(=O)N[C@@H](CCCNC(=N)N)C(=O)N[C@H](C(=O)N[C@@H](Cc1ccc(O)cc1)C(N)=O)[C@@H](C)O)C(C)C)[C@@H](C)O [Peptide 15]
- Acute food intake reduction 24–48 h (rats): 0 ± 5%
